According to patent EP2999467B1, “USE OF A COMBINATION OF TWO COMPOUNDS FOR THE TREATMENT AND/OR PREVENTION OF BONE DISORDERS” (Institut National de la Recherche Agronomique (INRA), priority 2013, dated 2014):
Read-outs that look alike come from different tables or passages of the source.

Key:
[1] = tested on: préostéoblastes primaires; test: Mineralisation test (alizarin red staining of mineralised nodules); format: cell-based, rats Wistar; settings: Rattus norvegicus, 408 h, 17 days of culture, read-out: minéralisation (nodules minéralisés) par rapport à la condition « AA+βGP seuls »
Description: (§1) Les préostéoblastes primaires ont été isolés à partir de la calotte crânienne de rats Wistar nouveaux-nés par digestion enzymatique comme précédemment décrit [Declercq, H., Van den Vreken, N., De Maeyer, E., Verbeeck, R., Schacht, E., De Ridder, L., and Cornelissen, M. (2004). Isolation, proliferation and differentiation of osteoblastic cells to study cell/biomaterial interactions: comparison of different isolation techniques and source. Biomaterials 25, 757-68.]. Les précurseurs d'ostéoclastes RAW264.7 ont été obtenus auprès de l'ATCC (Manassas, VA, USA). Les préostéoblastes et les RAW264.7 ont été cultivés dans du milieu α-MEM (Invitrogen, Carlsbad, CA, USA) supplémenté avec 10% de SVF décomplémenté et de 100 unités/ml de pénicilline-streptomycine.
Les préostéoblastes primaires ont été ensemencés à 1,5 * 10^5 cellules par puit dans des plaques 12 puits traitées au collagène. Trente-six heures plus tard, les cellules ont été prétraitées avec du DMSO comme témoin ou de la fisétine (1 à 5 µM) pendant 12 heures, puis induites à se différentier avec 25 µg/ml d'acide ascorbique et 5 mM de bêta-glycérophosphate en présence de DMSO ou de fisétine (1 à 5 µM). Après 17 jours de culture avec un changement des milieux tous les 2 jours, les cellules ont été fixées avec de l'éthanol à 70% et les dépôts de calcium ont été colorés avec une solution à 40 mM d'alizarine rouge (pH 4,2). La zone et l'intensité des nodules ont été quantifiées en utilisant le logiciel ImageJ (http://rsb.info.nih.gov/ij/).

phosphatase alcaline = test: Quantitative RT-PCR, osteoblast differentiation marker: alkaline phosphatase; format: cell-based, rats Wistar; settings: Rattus norvegicus; for activation at 5 µM: AA+βGP+Fisétine 5µM
Description: as §1
L'extraction des ARN totaux (cellules et fémurs) a été effectuée en utilisant le réactif TRIzol, la transcription inverse (RT) a été réalisée à l'aide du kit de synthèse d'ADNc Dynamo (Thermo Scientific, Waltham, MA, USA) et l'analyse PCR en temps réel a été réalisée avec le Mastercycler ep Realplex2 (Eppendorf, Hambourg, Allemagne). Toutes les valeurs ont été normalisées par la GAPDH. Les séquences des oligos utilisés sont : ALP F 5'-GGCCAGCTACACCACAACA-3' / ALP R 5'-[…] -3' / OCN F 5'-AGACTCCGGCGCTACCTT -3' / OCN R 5'-[…]-3'/ COL1 F 5'-[…]-3' / COL1 R 5'-[…]-3' / GAPDH F 5'-[…]-3' / GAPDH R 5'-[…]-3'

[2] = tested on: perte osseuse induite par ovariectomie; test: Ovariectomy-induced bone loss: trabecular bone mineral density of femur (CT); format: in vivo, souris C57BL/6J; settings: OVX mice, Fisétine 25mg/kg daily by gavage; OVX without fisetin -15%
Protocol: (§2) Tout au long de l'étude, les animaux ont été logés dans un environnement contrôlé (12:12 h cycle lumière-obscurité, 20-22 ° C, 50-60% d'humidité relative, 1 souris par cage en plastique avec un accès libre à l'eau. Les souris C57BL/6J ont été livrées 2 semaines avant l'étude pour l'acclimatation à notre environnement sous régime standard semi-purifié. Pour toutes les expériences, les souris de 8 semaines (n=12/groupe) ont été gavées avec le véhicule (1% d'éthanol, 0,2% hydroxypropylcellulose dans de l'eau distillée) ou avec la fisétine (5 à 50 mg/kg dans le véhicule) pendant une semaine. Ensuite, pour l'expérience OVX, les souris ont été pseudo-opérées ou ovariectomisées bilatéralement et ont reçu quotidiennement par gavage le véhicule ou la fisétine pendant 4 semaines. A la fin de l'expérimentation, le sérum, les cornes utérines, les tibias et les fémurs ont été recueillis pour analyse. Pour l'expérience de perte osseuse induite par LPS, le véhicule (PBS) ou le LPS (sérotype 026: B6, 25mg/kg) ont été injectés par voie sous-cutanée au niveau de la calotte crânienne, une fois par semaine pendant 3 semaines sous anesthésie. Durant ces 3 semaines, les souris ont reçu soit le véhicule (1% d'éthanol, 0,2% hydroxypropylcellulose dans de l'eau distillée) soit la fisétine quotidiennement par gavage. […]

ostéocalcine sérique = test: Ovariectomy-induced bone loss: serum osteocalcin (ELISA); format: in vivo, souris C57BL/6J; settings: daily Fisétine 25mg/kg by gavage
Protocol: as §2

O=c1c(O)c(-c2ccc(O)c(O)c2)oc2cc(O)ccc12 [Fisétine, 3,3',4',7-tétrahydroxyflavone]
activation at 1 µM ([1]; AA+βGP+Fisétine 1µM): 62% | activation at 5 µM ([1]; AA+βGP+Fisétine 5µM): 169% | activation at 2.5 µM ([1]; AA+βGP+Fisétine 2,5µM): 105% | activation at 1 µM (phosphatase alcaline; 168 h, AA+βGP+Fisétine 1 µM, J7, read-out: expression de la phosphatase alcaline par rapport à la condition « AA+βGP seuls »): 84% | activation at 5 µM (phosphatase alcaline; 168 h, J7, read-out: expression de la phosphatase alcaline par rapport à la condition « AA+βGP seuls »): 146% | activation at 1 µM (phosphatase alcaline; 336 h, AA+βGP+Fisétine 1µM, J14, read-out: expression de la phosphatase alcaline par rapport à la condition « AA+βGP seuls »): 37% | activation at 5 µM (phosphatase alcaline; 336 h, J14, read-out: expression de la phosphatase alcaline par rapport à la condition « AA+βGP seuls »): 88% | densité minérale osseuse (DMO trabéculaire) par rapport à la condition témoin « SH » [2]: -4% | taux sérique d'ostéocalcine par rapport à la condition témoin « SH » (ostéocalcine sérique): +61%
